From patent US11149035B2, “Chemical compounds as H—PGDS inhibitors” (GlaxoSmithKline Intellectual Property Development Limited, priority 2017, dated 2021) come the findings set out here.

The target in the experiment is T1, haematopoietic prostaglandin D synthase (H-PGDS) (Homo sapiens, UniProt O60760).
T1 construct: Full length human H-PGDS cDNA (Invitrogen Ultimate ORF IOH13026) was amplified by PCR; 6-His (N); TEV protease cleavage site (N); made in house; host or cells: E. coli BL21 (DE3*)
The experiment can be described thus: H-PGDS RapidFire high throughput mass spectrometry assay (conversion of PGH2 to PGD2). Format: biochemical. As to conditions: 10 nM H-PGDS, PGH2 formed in situ by COX-2 from arachidonic acid; four parameter curve fit; read-out: Potency Range (mean pIC50) (converted). An outline of the steps:
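His-tagged full-length human H-PGDS from E. coli converts PGH2, generated in situ at ~10 μM from arachidonic acid by FLAG-tagged human COX-2 from Sf9 cells. RapidFire SPE-triple quadrupole MS measures PGD2 against PGF2α as substrate surrogate; percent conversion is calculated.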

Where only a bound is given, the exact number is not on record here.

T1 sequence (O60760 whole entry): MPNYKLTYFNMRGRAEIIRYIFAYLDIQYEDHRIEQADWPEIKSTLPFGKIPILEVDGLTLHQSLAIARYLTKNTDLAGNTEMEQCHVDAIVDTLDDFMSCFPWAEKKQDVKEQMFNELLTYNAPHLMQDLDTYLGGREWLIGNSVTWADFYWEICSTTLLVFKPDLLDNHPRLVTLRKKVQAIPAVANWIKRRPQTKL

In the case of `C[C@]1(O)C[C@@H](NC(=O)c2cnc3nc(C4CC4)c(Cl)cc3c2)C1` [Example 76, 6-Chloro-7-cyclopropyl-N-((1s,3s)-3-hydroxy-3-methylcyclobutyl)-1,8-naphthyridine-3-carboxamide], the IC50 is under 10 nM. For the molecule `O=C(N[C@H]1C[C@](O)(C(F)(F)F)C1)c1cnc2nc(C3CC3)c(Cl)cc2c1` [Example 77, 6-Chloro-7-cyclopropyl-N-((1s,3s)-3-hydroxy-3-(trifluoromethyl)cyclobutyl)-1,8-naphthyridine-3-carboxamide], the IC50 is under 10 nM.

Turning to `C[C@H]1CCN1c1cc2ncc(C(=O)N[C@@H]3C(=O)NCC3(C)C)cc2cn1` [Example 78, N—((S)-4,4-Dimethyl-2-oxopyrrolidin-3-yl)-7-((S)-2-methylazetidin-1-yl)-1,6-naphthyridine-3-carboxamide], the IC50 is 100 to 1000 nM. For `CC(C)(O)[C@H]1CC[C@H](NC(=O)c2cnc3nc(N4CCC4)ncc3c2)CC1` [Example 79, 2-(Azetidin-1-yl)-N-((trans)-4-(2-hydroxypropan-2-yl)cyclohexyl)pyrido[2,3-d]pyrimidine-6-carboxamide] the value was 10 to 79.4 nM. `COc1ncc2cc(C(=O)N[C@H]3CC[C@H](C(C)(C)O)CC3)cnc2n1` [Example 80, N-((trans)-4-(2-Hydroxypropan-2-yl)cyclohexyl)-2-methoxypyrido[2,3-d]pyrimidine-6-carboxamide]: the IC50 was 100 to 1000 nM.
